How the values were obtained:
SK-MEL-3 cells = assay: Assay 1 cell proliferation measurement (CTG, 72 h), SK-MEL-3; format: cell-based, human; settings: Homo sapiens, SK-MEL3; Assay 1, 72 h, Cell Titer Glo; read-out: SK-MEL-3 IC50 [nM] (melanoma)
In short: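 CellTiter-Glo luminescence was read at treatment start (0 h plate) and after 72 h compound exposure at 37 °C. Doses were 2.5-fold steps, ten concentrations, top 100 nM final, 0.3% DMSO. Growth inhibition was scaled between 0 h and vehicle values, and IC50 was obtained by 4-parameter fitting.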

[1] = Assay 7 in vivo pharmacokinetics in non-rodents (dogs); design: species or system Beagle dogs; settings: i.v.
Procedure: Assay 7 In Vivo Pharmacokinetics in Non-Rodents (e.g. Dogs)
For in vivo pharmacokinetic experiments test compounds were administered to non-rodents (e.g. female Beagle dogs) intravenously (i.v.) at doses of 0.1 to 1 mg/kg and intragastrally (i.g.) at doses of 0.3 to 3 mg/kg formulated as solutions using solubilizers such as e.g. PEG400 in well-tolerated amounts and are usually given as short term infusion (15 min).
Blood samples were taken e.g. at 2 min, 8 min, 15 min, 30 min, 45 min, 1 h, 2 h, 4 h, 6 h, 8 h and 24 h after dosing from the vena saphena.
For pharmacokinetics after intragastral administration test compounds were given intragastrally to fasted non-rodents (e.g. dogs). Blood samples were taken e.g. at 5 min, 15 min, 30 min, 45 min, 1 h, 2 h, 4 h, 6 h, 8 h and 24 h after dosing. […] Blood was collected into Lithium-Heparin tubes (Monovetten@, Sarstedt) and centrifuged for 15 min at 3000 rpm. A small aliquot (e.g. 100 μL) from the supernatant (plasma) was taken and precipitated by addition of an aliquot ice cold acetonitrile (e.g. of 400 μL) and frozen at −20° C. over night. Samples were subsequently thawed and centrifuged at 3000 rpm, 4° C. for 20 minutes. Aliquots of the supernatants were taken for analytical testing using an Agilent HPLC-system with LCMS/MS detection. PK parameters were calculated by non-compartmental analysis using a PK calculation software.
PK parameters derived from concentration-time profiles after i.v.: CLplasma: Total plasma clearance of test compound (in L/kg/h); CLblood: Total blood clearance of test compound: CLplasma*Cp/Cb (abbreviation: CLp;) in L/kg/h) with Cp/Cb being the ratio of concentrations in plasma and blood.
PK parameters calculated from concentration time profiles after […].: Cmax: Maximal plasma concentration (in mg/L); Cmaxnorm: Cmax divided by the administered dose (in kg/L); Tmax: Time point at which Cmax was observed (in h). Parameters calculated from both, i.v. and i.g. concentration-time profiles: AUCnorm: Area under the concentration-time curve from t=0 h to infinity (extrapolated) divided by the administered dose (in kg*h/L); AUC(0-tlast)norm: Area under the concentration-time curve from t=0 h to the last time point for which plasma concentrations could be measured divided by the administered dose (in kg*h/L); t1/2: terminal half-life (in h); F: oral bioavailability: AUCnorm after intragastral administration divided by AUCnorm after intravenous administration (in %).

PA-1 cells = assay: Assay 1 cell proliferation measurement, PA-1; format: cell-based; settings: Homo sapiens, Ovarian teratocarcinoma, read-out: Anti-proliferation IC50 [nM] PA-1
Hs 578T cells = assay: Assay 1 cell proliferation measurement, Hs 578T; format: cell-based; settings: Homo sapiens, Breast, read-out: Anti-proliferation IC50 [nM] Hs 578T
[2] = test system: IGR-37 xenograft (Melanoma); assay: Assay 3 in vivo xenotransplantation model, IGR-37; settings: IGR-37 melanoma xenograft, mice, 10 mg/kg 2QD p.o.; * P < 0.05 vs control
From the text: In Vivo Xenotransplantation Models
The anti-tumor activities of Compounds of examples 135 and 146 were examined in murine xenotransplantation models of human cancer. For this purpose, mice were implanted subcutaneously with tumor cells. At a mean tumor size of 20-40 mm^2 animals were randomized into treatment and control groups (at least n=10 animals/group) and treatment started with vehicle only or respective Compound (formulation: 90% PEG400/10% Ethanol; application route: per os (“p.o.”), orally). The oral application volume was 10 ml/kg. In the case of twice daily treatments, the time interval between two applications per day was 6-7 h. The tumor size and the body weight were determined at least weekly. The tumor area was detected by means of an electronic caliper [length (mm)×width (mm)]. The experiment was ended when the study reached the pre-determined ethical endpoint based on German and European animal welfare regulations. In vivo anti-tumor efficacy is presented as T/C ratio at study end (Treatment/Control; mean tumor weight of treatment group/mean tumor weight of control group) in Table 8. A compound having a T/C below 0.5 is defined as active (i.e., effective). Statistical analysis was assessed using SigmaStat software. A one-way analysis of variance was performed and differences to the control were compared by a pair-wise comparison procedure (Dunn's method).

Row | SMILES | IC50 (SK-MEL-3 cells) | CLblood dog [1] | IC50 (PA-1 cells) | IC50 (Hs 578T cells) | T/C (mean final tumor weight treatment / control) [2]
1 | O=C1NN=C(c2ccc(-c3ccc(Cl)cc3)c(C(F)(F)F)c2)CO1 [Example 31, 5-[4′-Chloro-2-(trifluoromethyl)biphenyl-4-yl]-3,6-dihydro-2H-1,3,4-oxadiazin-2-one] | 11 nM | 8.17 mL/min/kg | 39 nM | > 100 nM | –
2 | O=C1NN=C(c2ccc(-c3cnn(C(F)F)c3)c(C(F)(F)F)c2)CO1 [Example 146, 5-{4-[1-(Difluoromethyl)-1H-pyrazol-4-yl]-3-(trifluoromethyl)phenyl}-3,6-dihydro-2H-1,3,4-oxadiazin-2-one] | 2 nM | 47.3 mL/min/kg | 12 nM | 28 nM | 0.05*
3 | C[C@@H]1OC(=O)NN=C1c1ccc(-n2ccc(C(F)(F)F)n2)c(C(F)(F)F)c1 [Example 265, (6S)-6-Methyl-5-{3-(trifluoromethyl)-4-[3-(trifluoromethyl)-1H-pyrazol-1-yl]phenyl}-3,6-dihydro-2H-1,3,4-oxadiazin-2-one] | 5 nM | – | – | – | 0.27*

Continued, in another order:

Row | IC50 (SK-MEL-3 cells) | CLblood dog [1] | SMILES | IC50 (PA-1 cells) | IC50 (Hs 578T cells) | T/C (mean final tumor weight treatment / control) [2]
4 | 7 nM | 39.8 mL/min/kg | O=C1NN=C(c2ccc(-c3ccc(F)cc3)c(C(F)(F)F)c2)CO1 [Example 3, 5-[4′-Fluoro-2-(trifluoromethyl)biphenyl-4-yl]-3,6-dihydro-2H-1,3,4-oxadiazin-2-one] | 22 nM | 29 nM | –
5 | 3 nM | 8.17 mL/min/kg | C[C@@H]1OC(=O)NN=C1c1ccc(-c2ccc(F)cc2)c(C(F)(F)F)c1 [Example 135, (6S)-5-[4′-Fluoro-2-(trifluoromethyl)biphenyl-4-yl]-6-methyl-3,6-dihydro-2H-1,3,4-oxadiazin-2-one] | – | – | 0.06*

— patent publication US11427553B2, “Dihydrooxadiazinones” (Bayer Aktiengesellschaft, priority 2017, dated 2022)
